Test results as given in patent US6667025B2 (Mitsubishi Pharma Corporation, priority 1997, dated 2003).

How the values were obtained:
[1] = system: (LEW×BN)F1 recipients injected with LEW spleen cells; experiment: Lethal GvHR in cyclophosphamide-pretreated recipients; assay type: in vivo, rat
Method: To examine the effect of FTY720 in preventing the lethal GvHR, splenic lymphocytes from LEW donor rats (1×10^8 spleen cells) were injected intravenously into cyclophosphamide-pretreated (LEW×BN)F1 recipients. Cyclophosphamide (Shionogi Co. Ltd; Osaka, Japan) was given at a 200 mg/kg dose.

[2] = system: rat HEV cell lines; experiment: Adhesion of rat lymphocytes to HEV cells in vitro; assay type: cell-based
Method: After the labeling with calcein-AM, the lymphocytes were washed three times with ice-cold RPMI 1640 medium. […] After incubation, the plates were turned upside down and kept for 30 min to remove HEV-nonadherent cells. Calcein pre-labeled lymphocytes adhered to HEV monolayer were lysed by adding distilled water containing 1% nonidet P-40 and the developed fluorescence was measured at 485/530 nm with fluorescence microplate reader (CytoFluor 2350).

[3] = system: popliteal lymph node of (LEW×BN) F1 rats injected with LEW spleen cells; experiment: Local GvHR, enlargement of popliteal lymph node; assay type: in vivo, rat
[4] = system: IL-2 production; conditions: same concentration range (up to 1000 nM); cited from earlier work
[5] = system: lymphocytes; experiment: Numbers of lymphocytes in blood, spleen, mesenteric lymph nodes and Peyer's patches in vivo; set-up: species or system rat; conditions: 24 hours
Method: FTY720 at 0.1 and 1 mg/kg were administered orally to 6 week-old male F344 rats. At 3, 12, 24 hours after administration, peripheral blood, spleen, mesenteric lymph nodes, and Peyer's patches were removed and the lymphocyte numbers of these tissues were measured by using a flow cytometer, as known in the art (EPICS XL).

[6] = system: renal allograft, mongrel donors and beagle recipients; experiment: Canine renal allograft survival; assay type: in vivo; conditions: 5 mg/kg
Method: Kidneys from mongrel donor dogs were transplanted into beagle dogs in the right iliac fossa, and the recipient dogs were then nephrectomized bilaterally. Levels of serum creatine and blood urea nitrogen were measured to monitor survival. Graft rejection was defined as the day when either serum creatine levels increased to more than 10.0 mg/dL or blood urea nitrogen levels elevated to more than 200 mg/dL. […] The survival curves are illustrated in FIG. 6.

[7] = system: skin allograft, LEW donor and F344 recipient; experiment: Rat skin allograft survival, MHC-compatible strains; assay type: in vivo; conditions: data not shown
[8] = system: T cell region of spleen; experiment: T cell region of spleen in vivo
[9] = system: skin allograft, WKAH donor and F344 recipients; assay type: in vivo
Source text: Two MHC-incompatible rat strains were selected, WKAH donor (RT1^k) and F344 recipients (RT1^IV1). Full-thickness skin grafts (2.0×2.0 cm square) were transplanted to the lateral thorax of recipients and wrapped with sterile, bactericidal gauze. The chest was then wrapped with an elastic bandage. Five days after transplantation, the wraps were removed and the grafts inspected daily for rejection. Rejection was defined as more than 90% necrosis of graft epithelium.

[10] = system: CD3-positive T cells and CD45RA or A/B-positive B cells; experiment: Lymphocyte contents of blood and lymphoid tissues by two color flow cytometry; assay type: in vivo, rat
Method: The lymphocyte contents of peripheral blood and spleen in FTY720-treated intact or allografted rats were analyzed by two color flow cytometry using anti-rat CD3 and anti-rat CD45RA or A/B monoclonal antibodies (21). Lymphocytes were stained with FITC-conjugated anti-CD3 (clone: 1F4, Caltag Laboratories, South San Fransisco, Calif.) (45) and phycoerythrin-conjugated anti-CD45RA or A/B (clone:OX-33, Pharmingen, La Jolla, Calif.) (46) monoclonal antibodies. The T cell and B cell contents were determined by two-color flow cytometry analysis using a flow cytometer (EPICS-XL; Coulter Co.).
(§1) In dogs and monkeys, as well as rats, oral administration with FTY720 also decreases the number of circulating lymphocytes in peripheral blood. The reduction of the number of T cells was especially remarkable. Withdrawal of FTY720 treatment recovered the number of lymphocytes in peripheral blood to the normal level within 2 weeks.

[11] = system: male F344 rat lymphocytes in lymphoid tissues; experiment: Homing of transfused male lymphocytes in female rats (SRY PCR); assay type: in vivo; conditions: 0.1 or 1 mg/kg oral 2.5 h before transfusion; 30 min after transfusion
Method: The decrease in circulating lymphocytes by FTY720 is due to the acceleration of lymphocyte homing to mesenteric and peripheral lymph nodes and Peyer's patches (FIGS. 13A-13D). For this experiment, after 2.5 h of administering FTY720 at 0.1 mg/kg or 1 mg/kg orally to female F344 rats, lymphocytes from male F344 rat were transfused intravenously into the rats. Thirty minutes after the transfusion, the peripheral blood, spleen, mesenteric lymph nodes, axillary lymph nodes, Peyer's patches, liver, and lung were removed. PCR amplification of SRY-1 gene, which is Y-chromosome specific, detected male lymphocytes in the tissue samples. The PCR primer sequences for SRY amplification were taken from a previous report (47). […]
An aliquot (10 μl) of the PCR products was electrophoresed on 2.5% agarose gel and the amplified DNA-fragments stained with SYBR Green I (Molecular Probes). The fluorescence intensity of the specific bands was visualized and measured by a fluorescence image analyzer (Fluor Imager 575, Molecular Dynamics). The number of male cells in 10^6 female cells, calculated with a standard curve made from a control amplification of SRY from a standard DNA extracted from 10^6 […], is indicated for each tissue noted in FIGS. 13A-13D.

[12] = system: circulating lymphocytes; experiment: Circulating lymphocytes in peripheral blood of monkeys; assay type: in vivo, monkey; conditions: oral
Source text: as §1

CCCCCCCCc1ccc(CCC(N)(CO)CO)cc1.Cl [FTY720, 2-amino-2[2-(4-octylphenyl)ethyl]propane-1,3-diol hydrochloride]
survival of recipient rats ([1]; 0.3 mg/kg, four out of five rats, without GvHR-associated symptoms): more than 60 days | GvHR-associated symptoms ([1]; oral 0.1 mg/kg for 30 days): prevented the development of GvHR-associated symptoms | MST of recipient rats ([1]; oral 0.1 mg/kg for 30 days): 50.0 days | Fluorescence intensity at 485/530, mean ± SE (n = 6) ([2]; Experiment 1, HEV cells pretreated 3 hours with 1 nmol/L): 1215.7 ± 191.2 | Fluorescence intensity at 485/530, mean ± SE (n = 6) ([2]; Experiment 1, HEV cells pretreated 3 hours with 10 nmol/L): 2926.0 ± 196.4 | Fluorescence intensity at 485/530, mean ± SE (n = 6) ([2]; Experiment 1, HEV cells pretreated 3 hours with 100 nmol/L): 2510.2 ± 118.8 | Fluorescence intensity at 485/530, mean ± SE (n = 6) ([2]; Experiment 2, lymphocytes pretreated 3 hours with 100 nmol/L): 1945.7 ± 5.2 | Fluorescence intensity at 485/530, mean ± SE (n = 6) ([2]; FTY720 1 nmol/L present): 2059.2 ± 112.6 | Fluorescence intensity at 485/530, mean ± SE (n = 6) ([2]; FTY720 10 nmol/L present): 2107.2 ± 106.5 | Fluorescence intensity at 485/530, mean ± SE (n = 6) ([2]; FTY720 100 nmol/L present): 2252.0 ± 70.8 | Fluorescence intensity at 485/530, mean ± SE (n = 6) ([2]; FTY720 1000 nmol/L present): 2383.2 ± 115.2 | concentration that enhanced adhesion of calcein-prelabeled lymphocytes to HEV ([2]; in vitro, 120 min): ≥ 1 nmol/L | immunosuppressive potency relative to CsA ([3]; local GvHR in rats): 30 fold | oral dose that significantly inhibited enlargement of popliteal lymph node ([3]; oral, local GvHR): ≥ 0.1 mg/kg | production of IL-2 [4]: did not inhibit | Number of lymphocytes, Peyer's patches ([5]; 0.1 mg/kg p.o.): 551.5 ± 103.5 × 10^4 cells/tissue | Number of lymphocytes, mesenteric lymph nodes ([5]; 0.1 mg/kg p.o.): 421.8 ± 27.4 × 10^5 cells/tissue | Number of lymphocytes, peripheral blood ([5]; 0.1 mg/kg p.o.): 1071.9 ± 59.3 cells/μL | Number of lymphocytes, spleen ([5]; 0.1 mg/kg p.o.): 652.3 ± 31.2 × 10^5 cells/tissue | Number of lymphocytes, Peyer's patches ([5]; 1 mg/kg p.o.): 628.8 ± 61.1 × 10^4 cells/tissue | Number of lymphocytes, mesenteric lymph nodes ([5]; 1 mg/kg p.o.): 434.3 ± 33.2 × 10^5 cells/tissue | Number of lymphocytes, peripheral blood ([5]; 1 mg/kg p.o.): 667.2 ± 199.8 cells/μL | Number of lymphocytes, spleen ([5]; 1 mg/kg p.o.): 538.0 ± 74.1 × 10^5 cells/tissue | MST of renal allograft [6]: 12.0 days | dose that significantly prolonged skin allograft survival [7]: ≥ 0.03 mg/kg | effect on T cell region of spleen [8]: atrophy | median survival time (MST) of skin graft ([9]; 10 mg/kg for 14 days): 27.0 days | oral dose that significantly prolonged skin graft survival ([9]; oral, WKAH to F344 rats): ≥ 0.1 mg/kg | renal toxicity or other toxic signs ([9]; rat, in vivo, po, 10 mg/kg): without renal toxicity or other toxic signs | number of bone marrow cells, thymocytes, polymorphonuclear cells ([10]; data not shown): did not effect | number of T cells and B cells in spleen, thoracic duct, peripheral blood ([10]; oral 1 mg/kg): decrease | numbers of T cells and B cells in mesenteric and peripheral lymph nodes ([10]; oral 1 mg/kg): significantly increased | time to recovery of peripheral blood lymphocytes to normal level after withdrawal ([10]; withdrawal of FTY720 treatment): ≤ 2 weeks | numbers of T cells and B cells in peripheral blood ([10]; within 6 hours after oral 0.1 to 10 mg/kg): dramatically decreased | pre-labeled lymphocytes in peripheral lymph nodes, Peyer's patch, mesenteric lymph nodes [11]: accelerated lymphocyte homing | pre-labeled lymphocytes in spleen [11]: reduction | number of circulating lymphocytes in peripheral blood [12]: decreases
